# Measured values taken from PubChem BioAssay AID262 (DTP/NCI, 2004).
# Several values for one entry are separate records, joined by “and”; a condition that tells them apart may be missing. Equal values may be shown once.
# System: LX-1 lung xenograft sc, nude mice, tumor weight
# Assay: NCI In Vivo Anticancer Drug Screen. Data for tumor model Human Lung LX-1 Xenograft (subcutaneous) in NU/NU Swiss (nude) mice
# Settings: endpoint: optimum tumor weight change, schedule: Q04DX003 (ip), higher = larger tumour
# Experimental: The antitumor activity of compounds was measured in mice bearing transplantable tumors. Survival or tumor size were measured and the results are expressed as the measurement made in the treated group (T) divided by the measurement made in the vehicle treated control group (C). The tumor model used in this assay is Human Lung LX-1 Xenograft (subcutaneous) in NU/NU Swiss (nude) mice
# [1] = dose: 25.0 mg/kg/injection, vehicle: saline
# [2] = dose: 50.0 mg/kg/injection, vehicle: saline
# [3] = dose: 25.0 mg/kg/injection, vehicle: Klucel (hydroxypropylcellulose) (HPC)
# [4] = dose: 12.5 mg/kg/injection, vehicle: Klucel (hydroxypropylcellulose) (HPC)
# [5] = dose: 50.0 mg/kg/injection, vehicle: Klucel (hydroxypropylcellulose) (HPC)
smiles,measurement,setting,value
O=C1c2c(O)ccc(O)c2C(=O)c2c(NCCNCCO)ccc(NCCNCCO)c21,T/C,"dose: 0.31 mg/kg/injection, vehicle: water",52 % of control
CSc1cc(=O)n2c3ccccc3c3ccnc1c32,T/C,"dose: 20.0 mg/kg/injection, vehicle: saline with Tween-80",92 % of control
same,T/C,"dose: 40.0 mg/kg/injection, vehicle: saline with Tween-80",71 % of control
same,T/C,"dose: 80.0 mg/kg/injection, vehicle: saline with Tween-80",93 % of control
same,T/C,"dose: 160.0 mg/kg/injection, vehicle: saline with Tween-80",92 % of control
Oc1cc2c3c(c1)c1cc4c(cc1c[n+]3CC2)OCO4,T/C,"dose: 12.5 mg/kg/injection, vehicle: water",78 % of control
same,T/C,"dose: 25.0 mg/kg/injection, vehicle: water",63 % of control
same,T/C,"dose: 50.0 mg/kg/injection, vehicle: water",62 % of control
CO[C@H]1C[C@](C)(O)Cc2cc3c(c(O)c21)C(=O)c1c(O)cc2c(c1C3=O)O[C@@H]1O[C@@]2(C)[C@H](O)[C@@H](N(C)C)[C@@H]1O,T/C,"dose: 6.25 mg/kg/injection, vehicle: other",53 % of control
same,T/C,"dose: 12.5 mg/kg/injection, vehicle: other",114 % of control
CC(C)CCCCCCCCCCCCC(=O)NCC(=O)NC1C(O)C(O)C(Nc2ncnc3nc[nH]c23)OC1C(O)CO (stereo not drawn),T/C,"dose: 3.0 mg/kg/injection, vehicle: suspension in saline",81 % of control
same,T/C,"dose: 12.0 mg/kg/injection, vehicle: suspension in saline",34 % of control
CC[C@]1(O)C[C@H]2CN(CCc3c([nH]c4ccccc34)[C@@](C(=O)OC)(c3cc4c(cc3OC)N(C=O)[C@H]3[C@@](O)(C(=O)OC)[C@H](OC(C)=O)[C@]5(CC)C=CCN6CC[C@]43[C@@H]65)C2)C1,T/C,"dose: 0.25 mg/kg/injection, vehicle: saline",98 % of control
same,T/C,"dose: 0.5 mg/kg/injection, vehicle: saline",79 % of control
CNC(=O)ON(C(C)=O)C(=O)NC,T/C,"dose: 12.5 mg/kg/injection, vehicle: saline",94 % of control
same,T/C,[1],103 % of control
same,T/C,[2],71 % of control
same,T/C,"dose: 100.0 mg/kg/injection, vehicle: saline",60 % of control
CCc1ccccc1N1CCN(C(=O)c2cc(OC)c(OC)c(OC)c2)CC1,T/C,[3],62 % of control and 85 % of control
same,T/C,"dose: 100.0 mg/kg/injection, vehicle: Klucel (hydroxypropylcellulose) (HPC)",60 % of control
O=P1(NCCCl)OCCCN1CCCl (stereo not drawn),T/C,"dose: 6.25 mg/kg/injection, vehicle: saline",26 % of control
same,T/C,[1],54 % of control
same,T/C,[2],39 % of control
CN(C)N=Nc1ccccc1,T/C,[4],94 % of control
same,T/C,[3],61 % of control and 79 % of control
CC(=O)OCC(=O)[C@@]12OC(C)(C)O[C@@H]1C[C@H]1[C@@H]3CC(C=O)=C4C=C(OCCCl)CC[C@]4(C)[C@@]3(F)[C@@H](O)C[C@@]12C,T/C,[3],96 % of control
same,T/C,[5],106 % of control
O=S(CCCl)CCCl,T/C,[5],61 % of control
NC(=S)N/N=C/c1ccc(O)cn1,T/C,"dose: 200.0 mg/kg/injection, vehicle: saline with Tween-80",64 % of control
same,T/C,"dose: 400.0 mg/kg/injection, vehicle: saline with Tween-80",76 % of control
Nc1nc(N)c2cc(CNc3ccc(C(=O)NC(CC(=O)O)CC(=O)O)cc3)ccc2n1,T/C,"dose: 6.25 mg/kg/injection, vehicle: Klucel (hydroxypropylcellulose) (HPC)",66 % of control
same,T/C,[4],71 % of control
same,T/C,[3],78 % of control
